Test results from ChEMBL document CHEMBL1141971, “Structure-guided design of pyrazolo[1,5-a]pyrimidines as inhibitors of human cyclin-dependent kinase 2” (Bioorg Med Chem Lett, 2005).
pIC50: −log10 of the molar value.

Legend:
[1] = target: Cyclin-dependent kinase 2 (Homo sapiens, UniProt P24941); experiment: Inhibitory concentration for Cyclin-dependent kinase 2 was determined in the presence of 100 um ATP (Km 50 uM)
[2] = target: Glycogen synthase kinase-3 beta (Homo sapiens, UniProt P49841); experiment: Inhibitory concentration for Glycogen synthase kinase-3 beta was determined in the presence of 10 um ATP (Km 10 uM)
HCT-116 = experiment: Inhibitor concentration to reduce HCT 116 cell line (tumor) growth by 50% over 72 h; type: functional; conditions: Homo sapiens, HCT-116, 72 h

Chain of Glycogen synthase kinase-3 beta (P49841 whole entry): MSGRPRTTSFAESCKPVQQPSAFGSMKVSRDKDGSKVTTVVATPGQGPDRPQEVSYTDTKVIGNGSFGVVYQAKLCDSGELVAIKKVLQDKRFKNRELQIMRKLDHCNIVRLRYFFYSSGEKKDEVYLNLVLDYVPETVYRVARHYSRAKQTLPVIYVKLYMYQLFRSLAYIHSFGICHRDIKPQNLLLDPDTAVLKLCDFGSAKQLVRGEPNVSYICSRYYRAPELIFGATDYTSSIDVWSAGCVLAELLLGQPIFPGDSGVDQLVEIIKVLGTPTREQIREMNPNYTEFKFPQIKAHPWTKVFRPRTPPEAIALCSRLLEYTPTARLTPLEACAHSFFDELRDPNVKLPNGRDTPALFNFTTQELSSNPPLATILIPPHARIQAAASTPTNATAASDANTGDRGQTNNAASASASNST

How did the pIC50 [1] turn out when `CCN[C@H]1CC[C@H](Nc2cc(Nc3ccc(S(=O)(=O)N(C)C)cc3)n3ncc(C(C)C)c3n2)CC1` was run?
The pIC50 was 7.21.

And the pIC50 [2]?
Its pIC50 is less than 4.30.

And the GI50 (HCT-116)?
Its GI50 is 1200 nM.

`CC(C)c1cnn2c(Nc3ccc(S(=O)(=O)N(C)C)cc3)cc(NC3CCCC(N)C3)nc12` (stereo not drawn) was tested. Which pIC50 [1] did it give?
The pIC50 was 5.68.

And the pIC50 [2]?
Its pIC50 is less than 4.30.

And the GI50 (HCT-116)?
Its GI50 is 3400 nM.

With `CC(C)c1cnn2c(Nc3ccc(S(=O)(=O)N(C)C)cc3)cc(O[C@H]3CC[C@H](N)CC3)nc12` as the molecule, how does the pIC50 [2] read?
Its pIC50 is 4.55.

And the GI50 (HCT-116)?
Its GI50 is 710 nM.

With `CC(C)COc1cc(Nc2ccc(S(C)(=O)=O)cc2)n2ncc(C(C)C)c2n1` as the molecule, how does the pIC50 [2] read?
The pIC50 was 4.92.

What about the GI50 (HCT-116) of the same molecule?
The GI50 was 7800 nM.

With `CC(C)COc1cc(Nc2ccc(S(=O)(=O)N(C)C)cc2)n2ncc(C(C)C)c2n1` as the molecule, how does the pIC50 [1] read?
Its pIC50 is 5.92.

And the pIC50 [2]?
Its pIC50 is 4.30.

What about the GI50 (HCT-116) of the same molecule?
Its GI50 is 7600 nM.

With `CCN(CC)[C@H]1CC[C@H](Nc2cc(Nc3ccc(S(=O)(=O)N(C)C)cc3)n3ncc(C(C)C)c3n2)CC1` as the molecule, how does the pIC50 [2] read?
The pIC50 was less than 4.30.

What about the GI50 (HCT-116) of the same molecule?
The GI50 was 16000 nM.

How did the pIC50 [1] turn out when `N[C@H]1CC[C@H](Nc2cc(Nc3ccc(S(=O)(=O)c4cccs4)cc3)n3ncc(Cl)c3n2)CC1` was run?
The pIC50 was 7.96.

What about the GI50 (HCT-116) of the same molecule?
The GI50 was 120 nM.

What does the source list for `CN(C)S(=O)(=O)c1ccc(Nc2cc(N[C@H]3CC[C@H](N)CC3)nc3c(Br)cnn23)cc1`?
pIC50 [1]: 8.00; pIC50 [2]: 5.47; GI50 (HCT-116): 910 nM

With `CN(C)S(=O)(=O)c1ccc(Nc2cc(N[C@H]3CC[C@H](N)CC3)nc3c(C#N)cnn23)cc1` as the molecule, how does the pIC50 [2] read?
Its pIC50 is 6.34.

What about the GI50 (HCT-116) of the same molecule?
The GI50 was 11000 nM.

With `CC(C)c1cnn2c(Nc3ccc(S(=O)(=O)N(C)C)cc3)cc(N[C@H]3CC[C@H](N)CC3)nc12` as the molecule, how does the pIC50 [2] read?
The pIC50 was 4.40.

What about the GI50 (HCT-116) of the same molecule?
Its GI50 is 580 nM.

With `CN(C)S(=O)(=O)c1ccc(Nc2cc(N[C@H]3CC[C@H](N)CC3)nc3c(Cl)cnn23)cc1` as the molecule, how does the pIC50 [1] read?
The pIC50 was 8.10.

What about the pIC50 [2] of the same molecule?
The pIC50 was 5.29.

And the GI50 (HCT-116)?
Its GI50 is 2700 nM.

How did the pIC50 [2] turn out when `CN(C)S(=O)(=O)c1ccc(Nc2cc(N[C@H]3CC[C@H](N)CC3)nc3c(C4CCCC4)cnn23)cc1` was run?
Its pIC50 is 4.66.

How did the pIC50 [2] turn out when `CN(C)S(=O)(=O)c1ccc(Nc2cc(N[C@H]3CC[C@H](N)CC3)nc3c(Br)cnn23)cc1Cl` was run?
The pIC50 was 5.06.

What about the GI50 (HCT-116) of the same molecule?
The GI50 was 340 nM.

How did the pIC50 [1] turn out when `N[C@H]1CC[C@H](Nc2cc(Nc3ccc(S(=O)(=O)c4ccccc4)cc3)n3ncc(Br)c3n2)CC1` was run?
The pIC50 was 7.80.

And the pIC50 [2]?
The pIC50 was 5.28.

What about the GI50 (HCT-116) of the same molecule?
Its GI50 is 80 nM.
